According to PubChem BioAssay (NCI):
“And” between values parts separate entries of the source, which are not always exact repeats. Equal entries are not always repeated.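 Tested at 5 concentrations; 48 h exposure; 96-well plates; endpoints linearly interpolated, else capped at highest concentration. The concentration for 50% growth inhibition is given as GI50. Definition used: TGI = concentration required for complete inhibition of growth.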

Experiments:
Test in all cases: growth of human tumour cells (NCI), 48 h
[1] = tested on: NCI-H23 lung
[2] = tested on: U251 CNS
[3] = tested on: UACC-257 melanoma
[4] = tested on: TK-10 renal
[5] = tested on: HCC-2998 colon
[6] = tested on: MDA-N
[7] = tested on: A498 renal
[8] = tested on: OVCAR-5 ovarian
[9] = tested on: MCF7 breast
[10] = tested on: NCI-H226 lung
[11] = tested on: MDA-MB-231 breast
[12] = tested on: UO-31 renal
[13] = tested on: NCI-H522 lung
[14] = tested on: HOP-62 NSCLC
[15] = tested on: SK-MEL-28 melanoma
[16] = tested on: SW-620 colon
[17] = tested on: OVCAR-4 ovarian
[18] = tested on: SNB-75 CNS
[19] = tested on: DU-145 prostate
[20] = tested on: OVCAR-3 ovarian
[21] = tested on: HCT-15 colon
[22] = tested on: IGROV1 ovarian
[23] = tested on: SK-MEL-5 melanoma
[24] = tested on: ACHN renal
[25] = tested on: SN12C renal
[26] = tested on: SK-MEL-2 melanoma
[27] = tested on: A549 NSCLC
[28] = tested on: RPMI-8226 leukemia
[29] = tested on: PC-3 prostate
[30] = tested on: OVCAR-8 ovarian
[31] = tested on: T-47D breast
[32] = tested on: MOLT-4 leukemia
[33] = tested on: BT-549 breast
[34] = tested on: NCI-H460 lung
[35] = tested on: MDA-MB-435
[36] = tested on: M14 melanoma
[37] = tested on: UACC-62 melanoma
[38] = tested on: K-562 leukemia
[39] = tested on: SF-268 CNS
[40] = tested on: HCT-116 colon
[41] = tested on: SNB-19 CNS
[42] = tested on: LOX IMVI melanoma
[43] = tested on: 786-0 renal
[44] = tested on: CAKI-1 renal
[45] = tested on: CCRF-CEM leukemia
[46] = tested on: SR leukemia
[47] = tested on: HT29 colon
[48] = tested on: HL-60(TB) leukemia
[49] = tested on: MALME-3M melanoma
[50] = tested on: SK-OV-3 ovarian
[51] = tested on: RXF 393 renal
[52] = tested on: KM12 colon
[53] = tested on: HOP-92 NSCLC
[54] = tested on: SF-295 CNS
[55] = tested on: COLO 205 colon
[56] = tested on: EKVX NSCLC
[57] = tested on: SF-539 CNS
[58] = tested on: NCI/ADR-RES ovarian

## Cc1ccc(C(=O)Nc2ccc(S(=O)(=O)O)c3cc(S(=O)(=O)O)cc(S(=O)(=O)O)c23)cc1NC(=O)Nc1cc(C(=O)Nc2ccc(S(=O)(=O)O)c3cc(S(=O)(=O)O)cc(S(=O)(=O)O)c23)ccc1C
[1]
  TGI: > 87.5 µM
[2]
  TGI: > 87.5 µM
[3]
  TGI: > 87.5 µM
[4]
  TGI: > 87.5 µM
[5]
  TGI: > 87.5 µM
[6]
  TGI: > 87.5 µM
[7]
  TGI: > 87.5 µM
[8]
  TGI: > 87.5 µM
[9]
  TGI: > 87.5 µM
[10]
  TGI: > 87.5 µM
[11]
  TGI: > 87.5 µM
[12]
  TGI: > 87.5 µM
[13]
  TGI: > 87.5 µM
[14]
  TGI: > 87.5 µM
[15]
  TGI: > 87.5 µM
[16]
  TGI: > 87.5 µM
[17]
  TGI: > 87.5 µM
[18]
  TGI: > 87.5 µM
[19]
  TGI: > 87.5 µM
[20]
  TGI: > 87.5 µM
[21]
  TGI: > 87.5 µM
[22]
  TGI: > 87.5 µM
[23]
  TGI: > 87.5 µM
[24]
  TGI: > 87.5 µM
[25]
  TGI: > 87.5 µM
[26]
  TGI: > 87.5 µM
[27]
  TGI: > 87.5 µM
[28]
  TGI: > 87.5 µM
[29]
  TGI: > 87.5 µM
[30]
  TGI: > 87.5 µM
[31]
  TGI: > 87.5 µM
[32]
  TGI: > 87.5 µM
[33]
  TGI: > 87.5 µM
[34]
  TGI: > 87.5 µM
[35]
  TGI: > 87.5 µM
[36]
  TGI: > 87.5 µM
[37]
  TGI: > 87.5 µM
[38]
  TGI: > 87.5 µM
[39]
  TGI: > 87.5 µM
[40]
  TGI: > 87.5 µM
[41]
  TGI: > 87.5 µM
[42]
  TGI: > 87.5 µM
[43]
  TGI: > 87.5 µM
[44]
  TGI: > 87.5 µM
[45]
  TGI: > 87.5 µM
[46]
  TGI: > 87.5 µM
[47]
  TGI: > 87.5 µM
[48]
  TGI: > 87.5 µM
[49]
  TGI: > 87.5 µM

## C=C(C(=O)OC)[C@H]1CC/C(C)=C/CC[C@@](C)(O)C=CC[C@@]2(C)O[C@@H]2C1
[50]
  TGI: > 100 µM
[1]
  TGI: 61 µM
[2]
  TGI: > 100 µM
[3]
  TGI: > 100 µM
[4]
  TGI: > 100 µM
[5]
  TGI: > 100 µM
[6]
  TGI: > 100 µM
[7]
  TGI: 87.2 µM
[8]
  TGI: > 100 µM
[9]
  TGI: > 100 µM
[10]
  TGI: > 100 µM
[11]
  TGI: > 100 µM
[12]
  TGI: 52.3 µM
[51]
  TGI: > 100 µM
[52]
  TGI: > 100 µM
[14]
  TGI: > 100 µM
[15]
  TGI: 41 µM
[16]
  TGI: > 100 µM
[17]
  TGI: > 100 µM
[18]
  TGI: > 100 µM
[19]
  TGI: 84.1 µM
[20]
  TGI: 42.4 µM
[21]
  TGI: 73.6 µM
[22]
  TGI: > 100 µM
[23]
  TGI: 20.1 µM
[24]
  TGI: > 100 µM
[25]
  TGI: > 100 µM
[26]
  TGI: > 100 µM
[27]
  TGI: > 100 µM
[28]
  TGI: 41.5 µM
[29]
  TGI: > 100 µM
[30]
  TGI: 27 µM
[31]
  TGI: > 100 µM
[32]
  TGI: 31.9 µM
[33]
  TGI: > 100 µM
[34]
  TGI: > 100 µM
[35]
  TGI: 46.1 µM
[36]
  TGI: > 100 µM
[37]
  TGI: > 100 µM
[53]
  TGI: 70.2 µM
[39]
  TGI: > 100 µM
[40]
  TGI: 36.6 µM
[54]
  TGI: > 100 µM
[41]
  TGI: > 100 µM
[43]
  TGI: 34.8 µM
[44]
  TGI: 50.2 µM
[55]
  TGI: 31 µM
[46]
  TGI: 33.8 µM
[47]
  TGI: 28.5 µM
[56]
  TGI: > 100 µM
[57]
  TGI: 56.9 µM
[58]
  TGI: 78.6 µM

## CCNC(=O)CCC(C)[C@H]1CCC2C3C(C[C@H](OC(C)=O)[C@@]21C)[C@@]1(C)CCC2(C[C@H]1C[C@H]3OC(C)=O)OOC1(CCC(C)CC1)OO2 (some centres not stated)
[1]
  TGI: 9.01 µM and 5.24 µM
[2]
  TGI: 7.32 µM and 3.23 µM
[3]
  TGI: > 100 µM and 96.3 µM
[4]
  TGI: 6.74 µM and 5.13 µM
[5]
  TGI: 7.3 µM and 3.87 µM
[6]
  TGI: 10.3 µM and 3.92 µM
[7]
  GI50: > 100 µM and 25.6 µM
  TGI: > 100 µM
[8]
  TGI: > 100 µM
[9]
  TGI: > 100 µM
[10]
  TGI: 9.4 µM and 3.85 µM
[11]
  TGI: 6.13 µM
[12]
  TGI: 2.38 µM and 2.71 µM
[13]
  TGI: 3.7 µM and 3.07 µM
[51]
  GI50: 9.58 µM and 3.18 µM
  TGI: > 100 µM and 16.5 µM
[52]
  TGI: 4.3 µM and 3.25 µM
[14]
  TGI: 3.56 µM and 2.09 µM
[15]
  TGI: > 100 µM and 17.4 µM
[17]
  TGI: 4.09 µM and 3.17 µM
[18]
  TGI: 5.89 µM and 5.67 µM
[19]
  TGI: 3.22 µM and 6.19 µM
[20]
  TGI: 3.62 µM
[21]
  TGI: 20.4 µM and 4.62 µM
[22]
  TGI: 3.66 µM and 2.87 µM
[23]
  TGI: 4.43 µM and 3.09 µM
[24]
  TGI: 4.65 µM and 3.13 µM
[26]
  TGI: 3.91 µM and 3.21 µM
[27]
  TGI: 8.28 µM and 4.02 µM
[28]
  GI50: 0.574 µM and 1.39 µM
  TGI: 2.64 µM and 3.81 µM
[29]
  GI50: 0.716 µM and 2.06 µM
  TGI: > 100 µM and 11.4 µM
[31]
  TGI: 5.18 µM and 3.84 µM
[32]
  GI50: 0.658 µM and 1.72 µM
  TGI: 2.66 µM and 5.47 µM
[33]
  TGI: 5.94 µM and 3.2 µM
[35]
  TGI: 5.22 µM and 3.44 µM
[36]
  TGI: 43 µM and 5.24 µM
[37]
  TGI: 10.8 µM and 6.15 µM
[38]
  TGI: > 100 µM
[53]
  TGI: 7.31 µM and 3.38 µM
[39]
  GI50: 4.22 µM and 1.59 µM
[40]
  TGI: 6.01 µM and 4.28 µM
[41]
  TGI: > 100 µM and 24.4 µM
[42]
  TGI: 6.29 µM and 4.61 µM
[43]
  TGI: 7.66 µM and 3.44 µM
[44]
  TGI: 3.93 µM and 2.24 µM
[45]
  TGI: 3.2 µM and 3.94 µM
[55]
  TGI: 3.18 µM and 3.2 µM
[46]
  TGI: 3.32 µM
[47]
  GI50: 1.19 µM and 3.04 µM
[56]
  TGI: 2.69 µM
[57]
  TGI: 7.44 µM and 3.7 µM
[48]
  TGI: 3.74 µM and 4.85 µM
[49]
  TGI: 6.1 µM and 3.92 µM
